Experimental data: patent US7368444B2, “N-carbamoyl nitrogen-containing fused ring compounds and drugs containing these compounds as the active ingredient” (Ono Pharmaceutical Co., Ltd., priority 2002, dated 2008)

Tests used:
[1] = test system: rat adrenocortical mitochondria; assay: Determination of pregnenolone in rat adrenocortical mitochondria; type: biochemical; conditions: final concentration of the compound 1 μmol/L; compared with DMSO treated group
Procedure: The steroid productivity of the present compound was evaluated using rat adrenocortical mitochondria.
After intraperitoneal administration of 20 mg/mL (1 mL) cycloheximide, 10 IU/mL (0.3 mL) adrenocorticotropic hormone (ACTH) was intraperitoneally administered to Male SD rats 5 minutes later. Then, rats were sacrificed by cervical dislocation 20 minutes later and bilateral adrenal cortexes were extirpated at once. The extirpated adrenal cortexes were homogenized in buffer A (50 mmol/L Tris-HCl, 250 mmol/L Succrose) followed to be centrifuged at 2,000 g for 3 min (4° C.). The supernatant was centrifuged at 12,500 g for 10 min (4° C.). The residual pellet was resuspended in buffer A followed to be centrifuged at 12,500 g for 10 min (4° C.). The pellet was washed again and finally suspended in buffer B (250 mmol/L Succrose, 10 mmol/L potassium phosphate buffer, 15 mmol/L triethanolamine, 20 mmol/L potassium chloride, 5 mmol/L magnesium chloride, 10 μmol/L trilostane, 10 μmol/L SU10603) for experiments. Malate (150 mmol/L), β-NADP^+ (5 mmol/L) and the compound in a total volume of 25 μL were incubated for 5 min at 37° C. […] The radioactivity of the supernatant was measured by liquid scintillation counter. The pregnenolone content in the sample was calculated from standard curve.

[2] = target: T1, MBR (Rattus norvegicus, UniProt P16257); assay: Receptor binding: [3H]PK11195 competition binding, rat brain membrane preparation; conditions: 1 nmol/L [3H]PK11195, rat brain membrane preparation; Ki from IC50 by Cheng & Prusoff
T1 construct: After male wistar rats were decapitated followed to remove the whole brain, cerebellums were removed; from tissue; host or cells: male Wistar rat whole brain without cerebellum, crude membrane pellet (12,000 g)
Procedure: The affinity of the compound to MBR was determined using rat brain membrane preparation. After male wistar rats were decapitated followed to remove the whole brain, cerebellums were removed. They were homogenized in ice-cold 50 mmo/L Tris-HCl buffer (pH7.4) and the homogenates were centrifuged at 12,000 g for 20 min (4° C.), and then their supernatants were discarded. The residual pellets were washed in the same buffer. The pellets resuspended in 50 mmo/L Tris-HCl buffer (pH7.4) and adjusted to about 1 mg/mL were used as rat brain membrane preparations for binding assay. The binding assay was experimented using [3H]PK11195 as a selective MBR ligand.
To determine the amount of total binding in saturation binding study, membrane preparations, various concentrations of [^3H]PK11195, final concentraion: 0.5 vol % dimethylsulfoxide (DMSO) and 50 mmo/L Tris-HCl buffer (pH7.4) (total volume of 200 μL) were incubated for 1 hour at room temperature. To determine the amount of non-specific binding, 20 μmol/L of PK11195 was added in place of DMSO were incubated for 1 hour. The mixture rapidly was filtrated on GF/B filter soaked with 0.3% polyethyleneimine using cell harvester, which was washed twice with 50 mmo/L Tris-HCl buffer (pH7.4). After drying, the radioactivity on the filer was measured by liquid scintillation counter. The data were analyzed using analysis soft KELL (Ver. 6, BIOSOFT). The dissociation constant (KD value) was determined by using scatchard analyses.
To determine the amount of total binding in competition binding study, membrane preparation, final concentraion: 1 nmol/L of [^3H]PK11195, final concentraion: 0.5 vol % of DMSO and 50 mmol/L Tris-HCl buffer (pH7.4) (the total volume of 200 μL) were incubated for 1 hour at room temperature. […] The reaction was terminated as above described 1 hour later, then radioactivity on the filer was measured by liquid scintillation counter. […]

Row | Compound | pregnenolone content [1] | Ki [2] [nM]
1 | CCCCCCN(CCCCCC)C(=O)Cc1c(-c2ccc(F)cc2)[nH]c2ccccc12 [FGIN1-27, 2-[2-(4-fluorophenyl)-1H-indol-3-yl]-N,N-dihexylacetamide] | higher than that in DMSO treated group | 
2 | O=C(Nc1ccc(O)cc1)N1CCCCc2ccccc21 [Example 14, 1-(4-hydroxyphenylcarbamoyl)-2,3,4,5-tetrahydro-1H-1-benzazepine] |  | 32
3 | O=C(Nc1c(Cl)cccc1Cl)N1CCCCc2ccccc21 [7 (18), 1-(2,6-dichlorophenylcarbamoyl)-2,3,4,5-tetrahydro-1H-1-benzazepine] |  | 0.09
4 | O=C(Nc1ccccc1)N1CCCCc2ccc(F)cc21 [7 (5), 8-fluoro-1-phenylcarbamoyl-2,3,4,5-tetrahydro-1H-1-benzazepine] |  | 5.5
